Data on three compounds can be found in patent EP1245247A1, “Biocidal locks” (Biolink Corporation, priority 2001, dated 2002).

One data set deals with S. epidermis. The settings on record: cited from earlier work.
Another data set has as its system blood. As to the kind of experiment: Clotting of pig blood collected into containers holding taurolidine solution (Example 1). The note with it: pig blood filled up to the 30 mL level; inspected after 30 minutes. As to the method: A 0.5% solution of taurolidine in Ringer-lactate solution (Thomae, Biberach, Germany) was introduced into each of four polyethylene bottles having a 30 mL volume. Filling volumes were 5, 10, and 15 mL. One bottle was filled with 5 mL of the taurolidine solution and 2 mL ACD-A (Fresenius, Bad Homburg, Germany) solution. ACD-A solution is used for the conservation of whole blood and contains per liter: 22.0 grams of sodium citrate dihydrate, 7.3 grams of citric acid and 34.5 grams of glucose monohydrate.
Blood was collected at a slaughter house from a female pig directly from the slaughter wound into the containers that were then filled up to the 30 mL level. The containers were capped and gently moved to mix blood with the solution. The containers were inspected after 30 minutes. Blood in the containers containing only taurolidine was clotted, but the blood in the container containing the mixture of taurolidine and ACD-A was not clotted.

The conditions of data set [1]: mice; cited from earlier work.
The subject of a further data set is E. coli. The note with it: intravenous 0.2 mL of a 20% solution in sterile 5% polyvinyl pyrrolidone; intraperitoneal E. coli; cited from earlier work.
The test system of the next data set is B. fragilis. The settings on record: intravenous 0.2 mL of a 20% solution in sterile 5% polyvinyl pyrrolidone; intraperitoneal B. fragilis; cited from earlier work.
Data set [2] relates to Vancomycin-Intermediate Susceptibility Staphylococcus Aureus (VISA) and Methicillin-Resistant Staphylococcus Aureus (MRSA). The note with it: range pH 7.0 to pH 5.0; cited from earlier work.
For data set [3] the following is noted: mouse, in vivo; cited from earlier work.

With `CN[C@H](CC(C)C)C(=O)N[C@H]1C(=O)N[C@@H](CC(N)=O)C(=O)N[C@H]2C(=O)N[C@H]3C(=O)N[C@H](C(=O)N[C@H](C(=O)O)c4cc(O)cc(O)c4-c4cc3ccc4O)[C@H](O)c3ccc(c(Cl)c3)Oc3cc2cc(c3O[C@@H]2O[C@H](CO)[C@@H](O)[C@H](O)[C@H]2O[C@H]2C[C@](C)(N)[C@H](O)[C@H](C)O2)Oc2ccc(cc2Cl)[C@H]1O` [Vancomycin], in the data set on S. epidermis (initial inocula of 10^3 CFU/mL), the bactericidal dose is reported as 6.7 µg/mL.
In the case of `O=C([O-])CN(CCN(CC(=O)[O-])CC(=O)O)CC(=O)O.[Na+].[Na+]` [disodium EDTA], the bactericidal concentration in the data set with S. epidermis (initial inoculum of 10^3 CFU of staphylococci per mL, in 24 hours) is given as 20 mg/mL.
Take `O=S1(=O)CCN(CN2CCS(=O)(=O)NC2)CN1` [taurolidine, bis-(1,1-dioxo-perhydroxy-1,2,4-thiadiazin-4-yl)methane]: in the data set on blood, the “Blood clotting in the containers” value is recorded as “clotted”. Besides, the “intraperitoneal LD50” value in data set [1] was about 1500 mg/kg. For the same compound, the mortality rate result in the data set with E. coli and with B. fragilis was “very significantly reduce the mortality rate” each time. Further, the “dependence of activity on pH” value in data set [2] is reported as “activity increases with decreasing pH”. For the same compound, the teratogenicity entry in data set [3] is “non-teratogenic”.
